From paper PMC12974487, “Inhibition of FicD-mediated AMPylation and deAMPylation by isoprenoid diphosphates” (Proceedings of the National Academy of Sciences of the …, 2026)
Changes are numbered by the printed parent chain.

Legend:
FicD^WT = biological target: T1, FicD^WT (Homo sapiens, UniProt Q9BVA6); assay: MIDAS equilibrium dialysis/mass spectrometry metabolite screen, FicD^WT; format: binding; conditions: cutoff Q < 0.05 and |Log2 corrected fold change| > 2, metabolites 5 µM
T1 construct: soluble ER luminal domain (residues 105 to 458) of wild-type human FicD; 6xHis-Sumo (N, cleaved yes); made in house; host or cells: Rosetta(DE3) E. coli
T1 sequence (Q9BVA6 105-458): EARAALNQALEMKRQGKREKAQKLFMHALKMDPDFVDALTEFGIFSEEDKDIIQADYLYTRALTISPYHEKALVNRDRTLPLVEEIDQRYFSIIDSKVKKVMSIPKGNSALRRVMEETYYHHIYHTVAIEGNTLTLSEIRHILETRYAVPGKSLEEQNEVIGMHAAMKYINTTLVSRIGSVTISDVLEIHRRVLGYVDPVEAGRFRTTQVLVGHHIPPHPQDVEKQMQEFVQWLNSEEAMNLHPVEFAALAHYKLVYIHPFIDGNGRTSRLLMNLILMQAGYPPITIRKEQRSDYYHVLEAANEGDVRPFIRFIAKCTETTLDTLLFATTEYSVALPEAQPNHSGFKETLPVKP
Excerpt: To identify small-molecule metabolite interactions with FicD, we applied an unbiased high-throughput screening approach known as MIDAS ([44]).

FicD^L258D = biological target: T2, FicD^L258D (Homo sapiens, UniProt Q9BVA6, L258D); assay: Differential scanning fluorimetry (DSF) thermal shift with FicD^L258D; format: binding; conditions: for EC50: read-out: EC50 of DSF dose-response (ΔTm)
T2 construct: soluble ER luminal domain (residues 105 to 458) of wild-type human FicD and three mutants; 6xHis-Sumo (N, cleaved yes); made in house; host or cells: Rosetta(DE3) E. coli
T2 sequence (Q9BVA6 105-458 L258D): T1 sequence (Q9BVA6 105-458) with L154D
Protocol: Differential Scanning Fluorimetry
Thermal shift assays were performed in Biorad CfX384 Touch Real-Time PCR Detection System […]
Reactions contained 50mM HEPES pH 7.4, 200mM NaCl, 200mM KCl, 200uM DTT, 5X Invitrogen Sypro Orange (Cat no. S6650), 8-9μM protein, and indicated nucleotide, cofactor, or small molecule in a total volume of 20uL. For every experiment ‘no protein’ controls were also included with the same reaction conditions. All reactions were performed in technical triplicates. Sealed plates containing reaction mixes were centrifuged for 1-5 min at 1000 RPM prior to temperature scanning (FRET channel), which was performed from 6°C […]
DSF data was analyzed with traditional methods automated in a Python package (https://pypi.org/project/instawell/). Briefly, for each temperature, the RFU values of technical triplicates are averaged. For each timepoint, the background fluorescence was subtracted using the RFU values of the ‘no protein’ control. […]
calculated. The melting temperature (Tm) is defined as the first derivative peak value. Data

SMILES | MIDAS protein-metabolite interaction (enrichment/depletion) (FicD^WT) | maximal Tm shift at saturating ligand concentration (FicD^L258D; FicD^L258D, 5 mM MgCl2) | EC50 (FicD^L258D; FicD^L258D, 5 mM MgCl2) [µM] | binding to FicD^L258D by DSF (FicD^L258D; absence of MgCl2) | binding to FicD^L258D by DSF (FicD^L258D; presence of 5 mM MgCl2) | apparent binding (DSF EC50) fold tighter than that of ADP (FicD^L258D; FicD^L258D, 5 mM MgCl2) [fold]
Nc1ncnc2c1ncn2[C@@H]1O[C@H](COP(=O)(O)OP(=O)(O)O)[C@@H](O)[C@H]1O [ADP] | significantly enriched | ~ 10 °C | 370 | did not bind | binding | –
CC(C)=CCC/C(C)=C/CC/C(C)=C/COP(=O)(O)OP(=O)(O)O [FPP, farnesyl-pyrophosphate] | significantly enriched | – | – | did not bind | bound | 20 to 30
CC(C)=CCC/C(C)=C/COP(=O)(O)OP(=O)(O)O [GPP, geranyl-pyrophosphate] | significantly enriched | – | 14.8 | – | – | 20 to 30
